Results from patent US7601332B2, “Vitamin receptor binding drug delivery conjugates” (priority 2003, dated 2009).

Columns and labels:
[1] = Toxicity based on animal body weights in tumor-bearing mice; assay type: in vivo; conditions: Balb/c mice, s.c. M109 tumors, i.v. twice a week for 4 weeks, 2-10 μmol/kg
Procedure: The anti-tumor activity of the compounds of Examples 9b (EC111) and 9c (EC112), where the drug is daunorubicin, when administered intravenously (i.v.) to tumor-bearing animals, was evaluated in Balb/c mice bearing subcutaneous M109 tumors. Four days post tumor inoculation in the subcutis of the right axilla with 1×10^6 M109 cells, mice (5/group) were injected i.v. twice a week for 4 weeks with 2-10 μmol/kg of the compound of either Example 9b or Example 9c or with unconjugated daunorubicin or PBS. Tumor growth was measured using calipers at 3-day or 4-day intervals in each treatment group. Tumor volumes were calculated using the equation V=a×b^2/2, where “a” is the length of the tumor and “b” is the width expressed in millimeters. Animal body weight was also determined at 3-day or 4-day intervals.
The protocol was as described in Example 42 except that the compound of Example 10a (EC105) was used, where the drug is bis-indolyl-seco-CBI. The compound of Example 10a was injected at a dose of 0.3 μmol/kg. Also, two subcutaneous tumor models were tested including the M109 model (folate receptor-positive) and the 4T1 model (folate receptor-negative), and in some animals a 67-fold excess of free folate (20 μmol/kg; FA) was coinjected with the conjugate (i.e., the compound of Example 10a).

[2] = system: M109 tumors (folate receptor-positive); assay: Inhibition of subcutaneous M109 tumor growth in mice; assay type: in vivo; conditions: Balb/c mice, s.c. M109 tumors, i.v. twice a week for 4 weeks, 2-10 μmol/kg
Procedure: The anti-tumor activity of the compounds of Examples 9b (EC111) and 9c (EC112), where the drug is daunorubicin, when administered intravenously (i.v.) to tumor-bearing animals, was evaluated in Balb/c mice bearing subcutaneous M109 tumors. Four days post tumor inoculation in the subcutis of the right axilla with 1×10^6 M109 cells, mice (5/group) were injected i.v. twice a week for 4 weeks with 2-10 μmol/kg of the compound of either Example 9b or Example 9c or with unconjugated daunorubicin or PBS. Tumor growth was measured using calipers at 3-day or 4-day intervals in each treatment group. Tumor volumes were calculated using the equation V=a×b^2/2, where “a” is the length of the tumor and “b” is the width expressed in millimeters. Animal body weight was also determined at 3-day or 4-day intervals. […]
The anti-tumor activity of the compound of Example 16b (EC145), where the drug is deacetylvinblastine monohydrazide, when administered intravenously (i.v.) to tumor-bearing animals, was evaluated in Balb/c mice bearing subcutaneous M109 tumors. […] Tumor growth was measured using calipers at 2-day or 3-day intervals in each treatment group. Tumor volumes were calculated using the equation V=a×b^2/2, where “a” is the length of the tumor and “b” is the width expressed in millimeters. […]

Structure (SMILES)	toxicity based on animal body weights [1]	anti-tumor activity (growth of M109 tumors) [2]
COc1cccc2c1C(=O)c1c(O)c3c(c(O)c1C2=O)C[C@@](O)(C(=O)CO)C[C@@H]3O[C@H]1C[C@H](N)[C@H](O)[C@H](C)O1 [doxorubicin]	concomitant toxicity	provided an anti-tumor response
COc1cccc2c1C(=O)c1c(O)c3c(c(O)c1C2=O)C[C@@](O)(/C(CO)=N\NC(=O)CCN1C(=O)CC(SC[C@H](NC(=O)CC[C@H](NC(=O)c2ccc(NCc4cnc5nc(N)[nH]c(=O)c5n4)cc2)C(=O)O)C(=O)O)C1=O)C[C@@H]3O[C@H]1CC(N)[C@H](O)C(C)O1 (stereo partly shown) [Example 9c]	no apparent toxicity	effective in delaying the growth of M109 tumors
